Key:
[1] = molecular target: T1, Inhibitor of nuclear factor kappa-B kinase subunit alpha (Homo sapiens) (UniProt O15111); assay: Inhibition of full length human His-tagged IKK1 expressed in baculovirus expression system at 10 uM by Z'-LYTE assay
T1 sequence (whole entry): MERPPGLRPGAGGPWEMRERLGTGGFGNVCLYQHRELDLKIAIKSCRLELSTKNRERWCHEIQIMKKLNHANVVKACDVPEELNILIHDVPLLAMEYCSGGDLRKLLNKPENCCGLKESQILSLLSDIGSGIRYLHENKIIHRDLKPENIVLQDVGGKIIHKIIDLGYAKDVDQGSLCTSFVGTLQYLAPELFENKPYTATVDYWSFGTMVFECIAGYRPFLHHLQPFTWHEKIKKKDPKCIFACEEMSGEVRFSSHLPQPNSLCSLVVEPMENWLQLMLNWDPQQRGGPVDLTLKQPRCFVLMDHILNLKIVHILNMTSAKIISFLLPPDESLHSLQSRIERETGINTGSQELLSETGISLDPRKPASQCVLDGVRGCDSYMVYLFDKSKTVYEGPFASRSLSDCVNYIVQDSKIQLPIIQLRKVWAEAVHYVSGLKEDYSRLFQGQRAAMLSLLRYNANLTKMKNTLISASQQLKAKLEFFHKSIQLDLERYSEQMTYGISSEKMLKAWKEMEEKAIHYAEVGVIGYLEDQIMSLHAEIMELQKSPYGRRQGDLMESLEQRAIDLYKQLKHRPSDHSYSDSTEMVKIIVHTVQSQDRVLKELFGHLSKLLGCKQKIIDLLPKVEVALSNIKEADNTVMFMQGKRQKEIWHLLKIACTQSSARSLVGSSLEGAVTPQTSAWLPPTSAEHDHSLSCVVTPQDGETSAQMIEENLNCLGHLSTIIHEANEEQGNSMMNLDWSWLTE

[2] = molecular target: T2, Inhibitor of nuclear factor kappa-B kinase subunit beta (Homo sapiens) (UniProt O14920); assay: Inhibition of full length human GST-tagged IKK2 expressed in baculovirus expression system at 10 uM by Z'-LYTE assay
T2 sequence (whole entry): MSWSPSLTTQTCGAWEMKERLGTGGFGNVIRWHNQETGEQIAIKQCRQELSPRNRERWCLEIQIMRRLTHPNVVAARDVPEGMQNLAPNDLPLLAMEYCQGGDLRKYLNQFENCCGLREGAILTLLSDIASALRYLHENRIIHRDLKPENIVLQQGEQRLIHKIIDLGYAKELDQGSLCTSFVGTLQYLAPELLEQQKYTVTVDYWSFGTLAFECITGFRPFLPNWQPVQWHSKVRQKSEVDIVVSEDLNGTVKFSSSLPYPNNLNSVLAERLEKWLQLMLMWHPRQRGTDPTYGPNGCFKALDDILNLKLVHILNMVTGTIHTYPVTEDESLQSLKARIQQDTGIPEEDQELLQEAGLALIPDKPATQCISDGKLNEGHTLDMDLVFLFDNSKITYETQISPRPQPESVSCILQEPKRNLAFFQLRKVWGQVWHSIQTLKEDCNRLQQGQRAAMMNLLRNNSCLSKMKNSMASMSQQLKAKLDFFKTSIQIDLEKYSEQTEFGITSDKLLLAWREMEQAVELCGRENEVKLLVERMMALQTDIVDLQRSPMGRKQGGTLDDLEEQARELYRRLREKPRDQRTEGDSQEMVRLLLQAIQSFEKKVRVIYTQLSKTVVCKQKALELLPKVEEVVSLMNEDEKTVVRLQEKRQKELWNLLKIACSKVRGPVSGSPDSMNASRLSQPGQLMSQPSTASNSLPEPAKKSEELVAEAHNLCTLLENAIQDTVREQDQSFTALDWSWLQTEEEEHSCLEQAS

THP-1 = assay: Anti-inflammatory activity in human THP1 cells assessed as inhibition of LPS/INFgamma-induced TNFalpha production at 10 uM relative to control; assay type: functional

| Structure (SMILES) | inhibition [1] [%] | inhibition [2] [%] | inhibition at 10 µM (THP-1) [%] |
| --- | --- | --- | --- |
| CNc1nc2ccccc2n2ncc(Br)c12 | 0 | 1 |  |
| CNc1nc2ccccc2n2cnc(Br)c12 | -5 | 10 |  |
| CNc1nc2ccc(C)cc2n2c(C)cnc12 |  |  | 45 |
| COc1ccc(-c2cnc3c(N)nccn23)cc1OC | -2 | -4 |  |
| CNc1nc2ccccc2n2cncc12 | 3 | 1 |  |
| CNc1nc2ccccc2n2c(C)cnc12 | -3 | 5 |  |
| CNc1nc2ccccc2n2nccc12 | 5 | -2 |  |
| CN(C)c1nc2ccccc2n2nccc12 | -10 | 17 |  |
| CNc1nc2ccc(C)cc2n2nccc12 | -9 | 19 |  |
| Nc1nccn2c(Br)cnc12 | 7 | 10 |  |
| Nc1nccn2c(-c3ccc(O)c(O)c3)cnc12 | 20 | -8 |  |
| CNc1nc2cc(C)ccc2n2ncc(Br)c12 | -6 | 7 |  |
| CNc1nc2ccccc2n2c(Br)nc(Br)c12 | -1 |  |  |
| CNc1nc2ccc(C)cc2n2c(Br)cnc12 |  |  | 40 |
| CNc1nccn2c(Br)cnc12 | 5 | 6 |  |
| CNc1nccn2c(-c3ccc(OC)c(OC)c3)cnc12 | -9 | -1 |  |

Now from value to molecule, other results behind:

| inhibition [1] [%] | inhibition [2] [%] | Structure (SMILES) | inhibition at 10 µM (THP-1) [%] |
| --- | --- | --- | --- |
| -1 | -4 | CNc1nccn2c(C)cnc12 |  |
| -10 | -3 | CNc1nc2ccc(C)cc2n2ncc(Br)c12 |  |
| -4 | 4 | CNc1nc2cc(C)ccc2n2nccc12 |  |
| -7 | 4 | Cc1ccc2c(c1)nc(N(C)C)c1ccnn12 |  |
|  | 1 | Cc1ccc2nc(N(C)C)c3ccnn3c2c1 |  |
| 0 | 16 | CNc1nc2ccccc2n2c(Br)ncc12 |  |
| 5 | 18 | CNc1nccn2c(-c3ccc(O)c(O)c3)cnc12 |  |
| 8 | 64 | Cc1ccc2nc(NCCN)c3ncc(C)n3c2c1 |  |
